Source: US6683079B2, “3-(amino-or aminoalkyl) pyridinone derivatives and their use for the treatment of HIV related diseases” (Centre National de la Recherche Scientifique, priority 1998, dated 2004)

Columns and labels:
HIV-1 strain 103 N = assay: Retrovirucidal effect on HIV-1 strain 103 N (Table 3); type: cell-based; conditions: HIV-1 strain 103N (RT Lys-103 to Asn mutant); pIC50=-log IC50, IC50 in M
Procedure: (§1) HIV-1 viral suspensions were obtained by coculture of MT4 cells and H9 cells chronically infected by HIV-ILai isolate. 200 μl of a cell supernatant containing viral particles (HIV-ILai: 100 TCID50) were incubated at room temperature with various concentrations of different inhibitors. After 3 hours, virions were washed through 0.02 μm anopore membrane in 1.5 mL Vectaspin tube (Whatman) for 10 minutes at 5 000 g. Each of the three subsequent washes was performed in the same conditions after the viral concentrate was refilled with 500 μL of RPMI medium. Then, the viral concentrate was readjusted to the initial volume with RPMI plus 10% foetal calf serum (FCS). The residual infectivity was assayed on P4 cells as described by CHARNEAU et al. (1994, J. Mol. Biol., 241, 651-662). Briefly, P4 cells were plated using 100 μL of DMEM medium plus 10% FCS in 96 plate multi-wells at 20×10^5 cells per mL. After overnight incubation at 37° C., the supernatant was discarded and the viral preparation (200 μL) was added. One day later the wells were washed three times in PBS. Each well was refilled with 200 μL of a reaction buffer containing 50 mM Tris-HCl pH 8.5, 100 mM 2-mercaptoethanol, 0.05% Triton X-100 and 5 mM 4-methylumbelliferyl β-D-galactopyranoside (MUG). After 3 hours at 37° C., the level of the reaction was measured in a fluorescence microplate reader.
(§2) The retrovirucidal effect of each pyridinone derivative listed in table 3 has been assayed according to the teachings of example 2, excepted that the anti-viral effect has been tested on the two following HIV-1 strains:
b) HIV-1 strain 103 N which is a mutant strain bearing a point mutation in the reverse transcriptase gene leading to an enzyme wherein the initial Lys-103 residue is replaced for a Asn residue.
The HIV-1 103 N strain has also been described by SAHLBERG et al.,(1998, Antiviral Res., 37 (3): ASS) and BALZARiNI et al. (1996, Antimicrobial Agents and Chemotherapy, 40 (6): 1454-1466).

HIV-1 strain IIIB = assay: Retrovirucidal effect on HIV-1 strain IIIB (Table 3); type: cell-based; conditions: pIC50=-log IC50, IC50 in M
Procedure: as §1, §2
a) HIV-1 strain IIIB (see example 2);

CCc1c(C)[nH]c(=O)c(N(C)C)c1Cc1cc(C)cc(C)c1 [Compound 3]
HIV1 pIC50 strain 103N (HIV-1 strain 103 N): 7.438
HIV1 pIC50 strain IIIB (HIV-1 strain IIIB): 8.004

CCc1c(C)[nH]c(=O)c(NCc2cc(C)c(C)cc2OC)c1Cc1cc(C)cc(C)c1 [Compound 4]
HIV1 pIC50 strain 103N (HIV-1 strain 103 N): <4
HIV1 pIC50 strain IIIB (HIV-1 strain IIIB): 5.094

CCc1c(C)[nH]c(=O)c(N)c1Cc1cc(C)cc(C)c1 [Compound 5]
HIV1 pIC50 strain 103N (HIV-1 strain 103 N): 5.636
HIV1 pIC50 strain IIIB (HIV-1 strain IIIB): 6.261

CCc1c(C)[nH]c(=O)c(N)c1C(O)c1cc(C)cc(C)c1 (stereo not drawn) [Compound 6]
HIV1 pIC50 strain 103N (HIV-1 strain 103 N): 5.026
HIV1 pIC50 strain IIIB (HIV-1 strain IIIB): 5.795

CCc1c(C)[nH]c(=O)c(N)c1Cc1ccc2ccccc2c1 [Compound 7]
HIV1 pIC50 strain 103N (HIV-1 strain 103 N): <4
HIV1 pIC50 strain IIIB (HIV-1 strain IIIB): <4

CCc1c(C)[nH]c(=O)c(N)c1Cc1ccc(C)cc1 [Compound 8]
HIV1 pIC50 strain 103N (HIV-1 strain 103 N): 4.39
HIV1 pIC50 strain IIIB (HIV-1 strain IIIB): 4.373

CCc1c(C)[nH]c(=O)c(N)c1Cc1cccc(C)c1 [Compound 9]
HIV1 pIC50 strain 103N (HIV-1 strain 103 N): 5.103
HIV1 pIC50 strain IIIB (HIV-1 strain IIIB): 5.373

CCc1c(C)[nH]c(=O)c(N(C)C)c1Cc1ccc2ccccc2c1 [Compound 10]
HIV1 pIC50 strain 103N (HIV-1 strain 103 N): 4.389
HIV1 pIC50 strain IIIB (HIV-1 strain IIIB): 6.241

CCc1c(Cc2cc(C)cc(C)c2)c(N(C)C)c(=O)n(C)c1C [Compound 11]
HIV1 pIC50 strain 103N (HIV-1 strain 103 N): 6.094
HIV1 pIC50 strain IIIB (HIV-1 strain IIIB): 7.215

CCc1c(C)[nH]c(=O)c(N(CC)CC)c1Cc1cc(C)cc(C)c1 [Compound 12]
HIV1 pIC50 strain 103N (HIV-1 strain 103 N): 6.363
HIV1 pIC50 strain IIIB (HIV-1 strain IIIB): 8.022

CCc1c(C)[nH]c(=O)c(N(C)C)c1Cc1cccc(C)c1 [Compound 13]
HIV1 pIC50 strain 103N (HIV-1 strain 103 N): 7.622
HIV1 pIC50 strain IIIB (HIV-1 strain IIIB): 8.824

CCc1c(C)[nH]c(=O)c(N(C)C)c1Cc1ccccc1C [Compound 14]
HIV1 pIC50 strain 103N (HIV-1 strain 103 N): 5.849
HIV1 pIC50 strain IIIB (HIV-1 strain IIIB): 7.676

Cc1cc(C)cc(Cc2cc[nH]c(=O)c2N)c1 [Compound 15]
HIV1 pIC50 strain 103N (HIV-1 strain 103 N): 4.138
HIV1 pIC50 strain IIIB (HIV-1 strain IIIB): <4.17

Cc1cc(C)cc(Cc2cc[nH]c(=O)c2N(C)C)c1 [Compound 16]
HIV1 pIC50 strain 103N (HIV-1 strain 103 N): 4.401
HIV1 pIC50 strain IIIB (HIV-1 strain IIIB): 5.061

CCCN(CCC)c1c(Cc2cc(C)cc(C)c2)c(CC)c(C)[nH]c1=O [Compound 17]
HIV1 pIC50 strain 103N (HIV-1 strain 103 N): 4.379
HIV1 pIC50 strain IIIB (HIV-1 strain IIIB): 6.285

CCc1c(C)[nH]c(=O)c(N(C)C)c1Cc1ccc(C)cc1 [Compound 18]
HIV1 pIC50 strain 103N (HIV-1 strain 103 N): 4.895
HIV1 pIC50 strain IIIB (HIV-1 strain IIIB): 6.454

CCc1c(C)[nH]c(=O)c(N(C)C)c1Cc1ccc(C)c(C)c1 [Compound 19]
HIV1 pIC50 strain 103N (HIV-1 strain 103 N): 5.947
HIV1 pIC50 strain IIIB (HIV-1 strain IIIB): 7.447

CCc1c(C)[nH]c(=O)c(N(C)C)c1Cc1cccc(C)c1C [Compound 20]
HIV1 pIC50 strain 103N (HIV-1 strain 103 N): 5.585
HIV1 pIC50 strain IIIB (HIV-1 strain IIIB): 6.926

CCc1c(C)[nH]c(=O)c(N(C)C)c1Cc1ccccc1 [Compound 21]
HIV1 pIC50 strain 103N (HIV-1 strain 103 N): 6.65
HIV1 pIC50 strain IIIB (HIV-1 strain IIIB): 8.409

CCc1c(Cc2cc(C)cc(C)c2)c(N(C)C)c(=O)n(Cc2ccccc2)c1C [Compound 22]
HIV1 pIC50 strain 103N (HIV-1 strain 103 N): <4
HIV1 pIC50 strain IIIB (HIV-1 strain IIIB): 4.603

CCOC(=O)Cn1c(C)c(CC)c(Cc2cc(C)cc(C)c2)c(N(C)C)c1=O [Compound 23]
HIV1 pIC50 strain 103N (HIV-1 strain 103 N): <4
HIV1 pIC50 strain IIIB (HIV-1 strain IIIB): 5.254

CCCCN(CCCC)c1c(Cc2cc(C)cc(C)c2)c(CC)c(C)[nH]c1=O [Compound 24]
HIV1 pIC50 strain 103N (HIV-1 strain 103 N): <4
HIV1 pIC50 strain IIIB (HIV-1 strain IIIB): 4.262

CCc1c(C)[nH]c(=O)c(N(Cc2ccccc2)Cc2ccccc2)c1Cc1cc(C)cc(C)c1 [Compound 25]
HIV1 pIC50 strain 103N (HIV-1 strain 103 N): 4.259
HIV1 pIC50 strain IIIB (HIV-1 strain IIIB): <4

CCc1[nH]c(=O)c(N)c(Cc2cc(C)cc(C)c2)c1C [Compound 27]
HIV1 pIC50 strain 103N (HIV-1 strain 103 N): 5.098
HIV1 pIC50 strain IIIB (HIV-1 strain IIIB): 5.949

CCc1[nH]c(=O)c(N(C)C)c(Cc2cc(C)cc(C)c2)c1C [Compound 28]
HIV1 pIC50 strain 103N (HIV-1 strain 103 N): 6.943
HIV1 pIC50 strain IIIB (HIV-1 strain IIIB): 8.032

CCc1c(C)[nH]c(=O)c(NCc2ccccc2)c1Cc1cc(C)cc(C)c1 [Compound 29]
HIV1 pIC50 strain 103N (HIV-1 strain 103 N): 5.496
HIV1 pIC50 strain IIIB (HIV-1 strain IIIB): 6.555

CCc1c(C)[nH]c(=O)c(N2CCCCC2)c1Cc1cc(C)cc(C)c1 [Compound 30]
HIV1 pIC50 strain 103N (HIV-1 strain 103 N): 4.224
HIV1 pIC50 strain IIIB (HIV-1 strain IIIB): 6.214

CCc1c(C)[nH]c(=O)c(N)c1Cc1ccc(C)cc1C [Compound 31]
HIV1 pIC50 strain 103N (HIV-1 strain 103 N): <4
HIV1 pIC50 strain IIIB (HIV-1 strain IIIB): <4

Cc1cc(C)cc(Cc2c(C)c(C)[nH]c(=O)c2N)c1 [Compound 32]
HIV1 pIC50 strain 103N (HIV-1 strain 103 N): <5
HIV1 pIC50 strain IIIB (HIV-1 strain IIIB): 6.104

Cc1cc(C)cc(Cc2c(C)c(C)[nH]c(=O)c2N(C)C)c1 [Compound 33]
HIV1 pIC50 strain 103N (HIV-1 strain 103 N): 6.286
HIV1 pIC50 strain IIIB (HIV-1 strain IIIB): 8.42

CCc1c(C)[nH]c(=O)c(N(C)C)c1Cc1ccc(C)cc1C [Compound 34]
HIV1 pIC50 strain 103N (HIV-1 strain 103 N): <4
HIV1 pIC50 strain IIIB (HIV-1 strain IIIB): 5.019

CCc1c(C)[nH]c(=O)c(N(C)C)c1C(=O)c1cc(C)cc(C)c1 [Compound 35]
HIV1 pIC50 strain 103N (HIV-1 strain 103 N): 7.987
HIV1 pIC50 strain IIIB (HIV-1 strain IIIB): 8.585

CCc1c(C)[nH]c(=O)c(N2CCOCC2)c1Cc1cc(C)cc(C)c1 [Compound 36]
HIV1 pIC50 strain 103N (HIV-1 strain 103 N): <4
HIV1 pIC50 strain IIIB (HIV-1 strain IIIB): 6.763

CCc1c(C)[nH]c(=O)c(N(C)C)c1Cc1cc(C)ccc1C [Compound 37]
HIV1 pIC50 strain 103N (HIV-1 strain 103 N): 5.729
HIV1 pIC50 strain IIIB (HIV-1 strain IIIB): 6.796

CCc1c(C)[nH]c(=O)c(N(C)C)c1Cc1cc(F)cc(F)c1 [Compound 38]
HIV1 pIC50 strain 103N (HIV-1 strain 103 N): 7.402
HIV1 pIC50 strain IIIB (HIV-1 strain IIIB): 8.155

CCc1c(C)[nH]c(=O)c(N)c1Cc1cccc(Cl)c1 [Compound 39]
HIV1 pIC50 strain 103N (HIV-1 strain 103 N): 4.751
HIV1 pIC50 strain IIIB (HIV-1 strain IIIB): 5

CCc1c(C)[nH]c(=O)c(N(C)C)c1Cc1cccc(Cl)c1 [Compound 40]
HIV1 pIC50 strain 103N (HIV-1 strain 103 N): 7.412
HIV1 pIC50 strain IIIB (HIV-1 strain IIIB): 8.585

CCc1c(C)[nH]c(=O)c(N)c1Cc1cccc(F)c1 [Compound 41]
HIV1 pIC50 strain 103N (HIV-1 strain 103 N): 4.473
HIV1 pIC50 strain IIIB (HIV-1 strain IIIB): 5.131

CCc1c(C)[nH]c(=O)c(N(C)C)c1Cc1cccc(F)c1 [Compound 42]
HIV1 pIC50 strain 103N (HIV-1 strain 103 N): 7.18
HIV1 pIC50 strain IIIB (HIV-1 strain IIIB): 8.569

CCc1c(C)[nH]c(=O)c(N(C)C)c1Cc1cn(C)c2ccccc12 [Compound 43]
HIV1 pIC50 strain 103N (HIV-1 strain 103 N): 6.422
HIV1 pIC50 strain IIIB (HIV-1 strain IIIB): 7.377

CCc1c(C)[nH]c(=O)c(N(C)C)c1Cc1cccnc1 [Compound 44]
HIV1 pIC50 strain 103N (HIV-1 strain 103 N): 6.355
HIV1 pIC50 strain IIIB (HIV-1 strain IIIB): 7.889

CCc1c(Cc2cc(C)cc(C)c2)c(N(C)C)c(=O)n(CC)c1C [Compound 45]
HIV1 pIC50 strain 103N (HIV-1 strain 103 N): 4.095
HIV1 pIC50 strain IIIB (HIV-1 strain IIIB): 5.519

CCc1c(C)[nH]c(=O)c(NC)c1Cc1cc(C)cc(C)c1 [Compound 46]
HIV1 pIC50 strain 103N (HIV-1 strain 103 N): 7.034
HIV1 pIC50 strain IIIB (HIV-1 strain IIIB): 8.119

CCCN(C)c1c(Cc2cc(C)cc(C)c2)c(CC)c(C)[nH]c1=O [Compound 47]
HIV1 pIC50 strain 103N (HIV-1 strain 103 N): 6.968
HIV1 pIC50 strain IIIB (HIV-1 strain IIIB): 7.767

CCc1c(C)[nH]c(=O)c(N(C)C)c1C(O)c1cc(C)cc(C)c1 (stereo not drawn) [Compound 48]
HIV1 pIC50 strain 103N (HIV-1 strain 103 N): 6.711
HIV1 pIC50 strain IIIB (HIV-1 strain IIIB): 8

CCc1c(C)[nH]c(=O)c(N)c1Cc1ccc(-c2ccccc2)cc1 [Compound 49]
HIV1 pIC50 strain 103N (HIV-1 strain 103 N): <5
HIV1 pIC50 strain IIIB (HIV-1 strain IIIB): <4

CCc1c(C)[nH]c(=O)c(N)c1Cc1cccc(C(F)(F)F)c1 [Compound 50]
HIV1 pIC50 strain 103N (HIV-1 strain 103 N): <5
HIV1 pIC50 strain IIIB (HIV-1 strain IIIB): <5

CCc1c(C)[nH]c(=O)c(N(C)C)c1Cc1ccc(-c2ccccc2)cc1 [Compound 51]
HIV1 pIC50 strain 103N (HIV-1 strain 103 N): <5
HIV1 pIC50 strain IIIB (HIV-1 strain IIIB): 5.384
